Laboratory results taken from patent US20240366739A1, “MEDICAMENT FOR TREATMENT AND/OR PREVENTION OF CANCER” (TORAY INDUSTRIES, INC., priority 2021, published 2024).

Tested on: mouse lymphoma cell line EG7 (OVA-expressing cancer cells) subcutaneously transplanted
Experiment: in vivo antitumor effect in cancer-bearing mice (tumor volume measured with calipers)
Details: Example 6; C57BL/6NCR mice with EG7 tumors; particle 0.5 mg s.c. once a week x2 from day 7; Poly(I:C) 50 μg into tumors twice a week x4; mixture given s.c.

## Poly(I:C)
  tumor growth / regression (tumor volume): not changed compared to negative controls
